Results from ChEMBL document CHEMBL3102717, “Synthesis and biological evaluation of amino acid methyl ester conjugates of 2-cyano-3,12-dioxooleana-1,9(11)-dien-28-oic acid against the production of nitric oxide (NO)” (2014).
Calls of active or inactive are those of the source. The rule behind the calls is not given here.

Tests used:
RAW264.7 [1] = assay: Inhibition of IFN-gamma-induced nitric oxide production in mouse RAW264.7 cells at 30 nM after 24 hrs by Griess method; assay type: functional, cell-based
RAW264.7 [2] = assay: Antioxidant activity in mouse RAW264.7 cells assessed as inhibition of tBHP-induced ROS production at 100 nM pretreated for 18 hrs before challenge measured after 15 mins by H2DCFA-based flow cytometry; assay type: functional, cell-based
RAW264.7 [3] = assay: Antioxidant activity in mouse RAW264.7 cells assessed as inhibition of tBHP-induced ROS production at 10 nM pretreated for 18 hrs before challenge measured after 15 mins by H2DCFA-based flow cytometry; assay type: functional
[4] = Antiproliferative activity against mouse PANC1343 cells assessed as viable cells at 1uM after 72 hrs by MTT assay; assay type: functional; details: PANC-1, 72 h, read-out: Activity
[5] = biological target: T1, Nuclear factor erythroid 2-related factor 2 (Mus musculus) (UniProt Q60795); assay: Induction of Nrf2-mediated HO-1 expression in mouse RAW264.7 cells at 30 to 300 nM after 6 hrs by Western blot method; assay type: cell-based
T1 sequence (whole entry): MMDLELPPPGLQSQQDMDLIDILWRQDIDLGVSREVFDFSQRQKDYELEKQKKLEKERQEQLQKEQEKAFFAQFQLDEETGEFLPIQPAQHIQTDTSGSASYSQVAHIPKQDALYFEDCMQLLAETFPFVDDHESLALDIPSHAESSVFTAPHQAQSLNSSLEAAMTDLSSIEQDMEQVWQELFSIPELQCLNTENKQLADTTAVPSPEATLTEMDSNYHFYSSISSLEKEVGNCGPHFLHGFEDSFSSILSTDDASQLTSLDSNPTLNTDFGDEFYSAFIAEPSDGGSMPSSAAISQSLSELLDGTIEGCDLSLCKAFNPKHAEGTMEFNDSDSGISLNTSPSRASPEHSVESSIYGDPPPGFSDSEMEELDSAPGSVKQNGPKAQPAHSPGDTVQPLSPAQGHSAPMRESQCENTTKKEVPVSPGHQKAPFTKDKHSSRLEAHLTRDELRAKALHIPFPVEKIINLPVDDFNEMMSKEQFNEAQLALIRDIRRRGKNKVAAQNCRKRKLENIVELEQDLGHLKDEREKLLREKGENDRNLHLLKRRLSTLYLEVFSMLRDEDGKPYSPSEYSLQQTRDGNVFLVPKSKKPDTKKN

HO-1 expression induction [5] | Compound | inhibition (RAW264.7 [1]) | inhibition (RAW264.7 [2]) | inhibition at 0.01 µM (RAW264.7 [3]) [%] | viability at 1 µM [4] [%]
 | COC(=O)CC(NC(=O)[C@]12CCC(C)(C)C[C@H]1[C@H]1C(=O)C=C3[C@@]4(C)C=C(C#N)C(=O)C(C)(C)[C@@H]4CC[C@@]3(C)[C@]1(C)CC2)C(=O)OC (some centres undefined) | inactive |  |  | 
 | COC(=O)C(Cc1c[nH]c2ccccc12)NC(=O)[C@]12CCC(C)(C)C[C@H]1[C@H]1C(=O)C=C3[C@@]4(C)C=C(C#N)C(=O)C(C)(C)[C@@H]4CC[C@@]3(C)[C@]1(C)CC2 (some centres undefined) | inactive |  |  | 
 | COC(=O)[C@]12CCC(C)(C)C[C@H]1[C@H]1C(=O)C=C3[C@@]4(C)C=C(C#N)C(=O)C(C)(C)[C@@H]4CC[C@@]3(C)[C@]1(C)CC2 |  | Active |  | 
 | COC(=O)C(Cc1cnc[nH]1)NC(=O)[C@]12CCC(C)(C)C[C@H]1[C@H]1C(=O)C=C3[C@@]4(C)C=C(C#N)C(=O)C(C)(C)[C@@H]4CC[C@@]3(C)[C@]1(C)CC2 (some centres undefined) | inactive |  |  | 
 | COC(=O)C(Cc1ccccc1)NC(=O)[C@]12CCC(C)(C)C[C@H]1[C@H]1C(=O)C=C3[C@@]4(C)C=C(C#N)C(=O)C(C)(C)[C@@H]4CC[C@@]3(C)[C@]1(C)CC2 (some centres undefined) | inactive |  |  | 
Active | COC(=O)C(NC(=O)[C@]12CCC(C)(C)C[C@H]1[C@H]1C(=O)C=C3[C@@]4(C)C=C(C#N)C(=O)C(C)(C)[C@@H]4CC[C@@]3(C)[C@]1(C)CC2)C(C)C (some centres undefined) | Active | Active | 50 | < 10
 | COC(=O)C(Cc1ccc(O)cc1)NC(=O)[C@]12CCC(C)(C)C[C@H]1[C@H]1C(=O)C=C3[C@@]4(C)C=C(C#N)C(=O)C(C)(C)[C@@H]4CC[C@@]3(C)[C@]1(C)CC2 (some centres undefined) | inactive |  |  | 
Active | CCNC(=O)[C@]12CCC(C)(C)C[C@H]1[C@H]1C(=O)C=C3[C@@]4(C)C=C(C#N)C(=O)C(C)(C)[C@@H]4CC[C@@]3(C)[C@]1(C)CC2 | Active |  |  | 
Active | COC(=O)C(C)NC(=O)[C@]12CCC(C)(C)C[C@H]1[C@H]1C(=O)C=C3[C@@]4(C)C=C(C#N)C(=O)C(C)(C)[C@@H]4CC[C@@]3(C)[C@]1(C)CC2 (some centres undefined) | Active |  | 50 | < 10
 | COC(=O)C(CC(C)C)NC(=O)[C@]12CCC(C)(C)C[C@H]1[C@H]1C(=O)C=C3[C@@]4(C)C=C(C#N)C(=O)C(C)(C)[C@@H]4CC[C@@]3(C)[C@]1(C)CC2 (some centres undefined) | inactive |  |  | 
Active | COC(=O)C(CO)NC(=O)[C@]12CCC(C)(C)C[C@H]1[C@H]1C(=O)C=C3[C@@]4(C)C=C(C#N)C(=O)C(C)(C)[C@@H]4CC[C@@]3(C)[C@]1(C)CC2 (some centres undefined) | Active | Active | 50 | < 10
 | COC(=O)C1CCCN1C(=O)[C@]12CCC(C)(C)C[C@H]1[C@H]1C(=O)C=C3[C@@]4(C)C=C(C#N)C(=O)C(C)(C)[C@@H]4CC[C@@]3(C)[C@]1(C)CC2 (some centres undefined) | inactive |  |  | 
